ChEMBL document CHEMBL1201862, “PubChem BioAssay data set” (2004)
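Dose response: 5 concentrations. Exposure: 48 h. Format: 96-well plates. Endpoint: linear interpolation; highest concentration if not reached. GI50 marks 50% less growth.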 Active and inactive are the calls of the source. Cut-off read from the data, not from the text of the source: active = GI50 up to about 1.1 µM and inactive = higher.

Tests used:
Assay in all cases: DTP human tumour cell line panel, 48 h
MDA-N = system: MDA-N
OVCAR-3 = system: OVCAR-3
SK-MEL-5 = system: SK-MEL-5
CCRF-CEM = system: CCRF-CEM
MDA-MB-231 = system: MDA-MB-231
SK-OV-3 = system: SK-OV-3
HL-60 = system: HL-60
786-0 = system: 786-0
UACC-62 = system: UACC-62
T47D = system: T47D
RXF 393 = system: RXF 393
ACHN = system: ACHN
SF-539 = system: SF-539
HT-29 = system: HT-29
CAKI-1 = system: CAKI-1
LOX IMVI = system: LOX IMVI
OVCAR-4 = system: OVCAR-4
SNB-75 = system: SNB-75
SK-MEL-2 = system: SK-MEL-2

Measured: GI50

CCN(CC)c1nc(NC2CCCCC2)c2nc(N(CC)CC)nc(NC3CCCCC3)c2n1
inactive: MDA-N > 100 µM | OVCAR-3 > 100 µM | SK-MEL-5 > 100 µM | CCRF-CEM > 100 µM | MDA-MB-231 88.1 µM | SK-OV-3 > 100 µM | HL-60 > 100 µM | 786-0 > 100 µM | UACC-62 > 100 µM | T47D > 100 µM | RXF 393 33.3 µM | ACHN > 100 µM | SF-539 29.5 µM | HT-29 > 100 µM

C=CCc1oc(C)nc1CCCC
inactive: CAKI-1 > 100 µM | MDA-N > 100 µM | LOX IMVI > 100 µM | OVCAR-3 > 100 µM | SK-MEL-5 > 100 µM | OVCAR-4 > 100 µM | CCRF-CEM > 100 µM | MDA-MB-231 > 100 µM | SK-OV-3 > 100 µM | HL-60 > 100 µM | 786-0 > 100 µM | UACC-62 > 100 µM | T47D > 100 µM | RXF 393 > 100 µM | ACHN > 100 µM | SF-539 > 100 µM | SNB-75 > 100 µM | HT-29 > 100 µM

CN1CCCCCC(=N\O)/C(=N/O)CCCCC1
inactive: CAKI-1 > 100 µM | MDA-N > 100 µM | LOX IMVI > 100 µM | OVCAR-3 > 100 µM | SK-MEL-5 > 100 µM | CCRF-CEM > 100 µM | MDA-MB-231 > 100 µM | HL-60 > 100 µM | 786-0 > 100 µM | RXF 393 > 100 µM | ACHN > 100 µM | SF-539 > 100 µM | SNB-75 > 100 µM | HT-29 > 100 µM

Cc1ccc(Cc2n[nH]c(=O)n2N2C(=O)c3ccccc3C2=O)cc1
inactive: CAKI-1 > 100 µM | MDA-N > 100 µM | LOX IMVI > 100 µM | OVCAR-3 > 100 µM | SK-MEL-5 > 100 µM | OVCAR-4 > 100 µM | CCRF-CEM > 100 µM | MDA-MB-231 > 100 µM | 786-0 > 100 µM | UACC-62 > 100 µM | T47D > 100 µM | ACHN > 100 µM | SF-539 > 100 µM | SNB-75 91.4 µM | SK-MEL-2 > 100 µM | HT-29 > 100 µM

Cc1ccc(Cc2nnc(S)[nH]2)cc1
inactive: CAKI-1 > 100 µM | MDA-N > 100 µM | LOX IMVI 74 µM | OVCAR-3 > 100 µM | SK-MEL-5 74.6 µM | OVCAR-4 32.3 µM | CCRF-CEM 56.6 µM | MDA-MB-231 > 100 µM | SK-OV-3 > 100 µM | HL-60 25.8 µM | 786-0 75.3 µM | UACC-62 > 100 µM | T47D 40.8 µM | ACHN 63.7 µM | SF-539 > 100 µM | SNB-75 > 100 µM | SK-MEL-2 > 100 µM | HT-29 > 100 µM
